{
  "source": "patent US7241757B2",
  "about": "“Amidino derivatives and their use as thrombin inhibitors” (AstraZeneca AB, priority 2000, dated 2007)",
  "key": {"[1]": {"target": "T1, Human thrombin (Homo sapiens, UniProt P00734)", "T1 construct": "conversion of the proenzyme prothrombin to the active enzyme thrombin; purchased Sigma Chem. Co T 6769", "assay": "Test A: Determination of Thrombin Clotting Time (TT)", "format": "biochemical", "conditions": "concentration of inhibitor that doubles the thrombin clotting time for human plasma", "experimental": "Determination of Thrombin Clotting Time (TT)\nThe inhibitor solution (25 μL) was incubated with plasma (25 μL) for three minutes. Human thrombin (T 6769; Sigma Chem. Co) in buffer solution, pH 7.4 (25 μL) was then added and the clotting time measured in an automatic device (KC 10; Amelung).\nThe clotting time in seconds was plotted against the inhibitor concentration, and the IC50TT was determined by interpolation.\nIC50TT is the concentration of inhibitor in the test that doubles the thrombin clotting time for human plasma."}, "[2]": {"conditions": "rat, in vivo", "excerpt": "Determination of Thrombin Time Ex Vivo\nThe inhibition of thrombin after oral or parenteral administration of the compounds of formula I, dissolved in ethanol:Solutol™:water (5:5:90), were examined in conscious rats which, one or two days prior to the experiment, were equipped with a catheter for blood sampling from the carotid artery. On the experimental day blood samples were withdrawn at fixed times after the administration of the compound into plastic tubes containing 1 part sodium citrate solution (0.13 mol per L) and 9 parts of blood. The tubes were centrifuged to obtain platelet poor plasma. The plasma was used for determination of thrombin time as described below.\nThe citrated rat plasma, 100 μL, was diluted with a saline solution, 0.9%, 100 μL, and plasma coagulation was started by the addition of human thrombin (T 6769, Sigma Chem Co, USA) in a buffer solution, pH 7.4, 100 μL. The clotting time was measured in an automatic device (KC 10, Amelumg, Germany). […]\nBased on the estimated plasma concentrations of the active thrombin inhibitor (which assumes that thrombin time prolongation is caused by the aforementioned compound) in the rat, the area under the curve after oral and/or parenteral administration of the corresponding prodrug compound of formula I was calculated (AUCpd) using the trapezoidal rule and extrapolation of data to infinity. […]"}},
  "data": [
    {"smiles": "N=C(N)c1ccc(CNC(=O)C2CCN2C(=O)C2(O)CCOc3c(OC(F)F)cc(Cl)cc32)cc1", "note": "(single isomer, unassigned) [Example 8, (S)- or (R)-4-Hydroxy-6-chloro-8-difluoromethoxychroman-4-yl-C(O)-Aze-Pab×HOAc]", "values": [
      {"measurement": "IC50", "setting": "[1]", "result": "< 100", "unit": "nM"}
    ]},
    {"smiles": "CON=C(N)c1ccc(CNC(=O)[C@@H]2CCN2C(=O)C2(O)CCOc3c(OC(F)F)cc(Cl)cc32)cc1", "note": "(single isomer, unassigned) [Example 9, (S)- or (R)-4-Hydroxy-6-chloro-8-difluoromethoxychroman-4-yl-C(O)-Aze-Pab(OMe)]", "values": [
      {"measurement": "oral and/or parenteral bioavailability as the corresponding active inhibitor (free amidine)", "setting": "[2]", "result": "exhibit oral and/or parenteral bioavailability"}
    ]},
    {"smiles": "N=C(N)c1ccc(CNC(=O)C2CCN2C(=O)C2(O)CCOc3c(OC(F)(F)F)cc(Cl)cc32)cc1", "note": "(stereo not shown) [Example 6, 4-Hydroxy-6-chloro-8-trifluoromethoxychroman-4-yl-C(O)-Aze-Pab]", "values": [
      {"measurement": "IC50", "setting": "[1]", "result": "< 100", "unit": "nM"}
    ]},
    {"smiles": "CON=C(N)c1ccc(CNC(=O)[C@@H]2CCN2C(=O)C2(O)CCOc3c(OC(F)(F)F)cc(Cl)cc32)cc1", "note": "(stereo partly shown) [Example 7, 4-Hydroxy-6-chloro-8-trifluoromethoxychroman-4-yl-C(O)-Aze-Pab(OMe)]", "values": [
      {"measurement": "oral and/or parenteral bioavailability as the corresponding active inhibitor (free amidine)", "setting": "[2]", "result": "exhibit oral and/or parenteral bioavailability"}
    ]}
  ]
}
